Assay results: patent US20260294915A1, “COMBINATION THERAPY COMPRISING A MAT2A INHIBITOR AND A TOPOISOMERASE INHIBITOR, A SPLICING INHIBITOR SULFONAMIDE, OR A KIF18 INHIBITOR” (IDEAYA BIOSCIENCES, INC., priority 2023, published 2026)
Read-outs that look alike come from different tables or passages of the source. Values belong to the compound of their own block, whether it stands above or below them.

Legend:
[1] = system: LMSU (RCB1062) human gastric tumor cell-derived xenograft (CDX) models; test: Anti-tumor activity in LMSU gastric mouse xenograft (CDX) model (Example 9); format: in vivo; conditions: Compound A 10 mg/kg oral once per day
Description: All mouse studies were approved by the Institutional Animal Care and Use Committee (IACUC) based on guidelines from the National Institutes of Health (NIH). Mice were maintained under pathogen-free conditions, and food and water were provided ad libitum.
The anti-tumor effect of Compound A and irinotecan hydrochloride as single-agents or in combination was assessed in the LMSU (RCB1062) human gastric tumor cell-derived xenograft (CDX) models. LMSU was expanded in HamF10 with 10% fetal bovine serum. Cells were free of mycoplasma and authenticated by STR profiling, and ten million cells in log growth phase were resuspended in Hanks Balanced Salt Solution containing 50% Matrigel and implanted subcutaneously into the flank of each recipient female Crl:NU-Foxn1nu mouse. Mice were housed in microisolator cages with corn cob bedding with additional enrichment consisting of sterile nesting material (Innovive) and Bio-huts (Bio-Serv). Water (Innovive) and diet (Teklad Global 19% Protein Extruded Diet 2919, Irradiated) were provided ad libitum. The environment was maintained on a 12-hour light cycle at approximately 68-72° F. and 40-60% relative humidity.
Tumor Volume (TV) was calculated using the following formula: TV (mm^3)=(width×width×length)/2. Tumor growth inhibition (TGI) was calculated by [(TV controlfinal−TV treatedfinal)/(TV controlfinal−TV controlinitial)×100]. TV was analyzed for statistical significance utilizing GraphPad Prism version 10.2.2. Repeated Measures 2-Way ANOVA with Dunnet's Multiple Comparisons was utilized, and P-values were derived from data collected on the date of Vehicle group termination and were considered statistically significant if less than 0.05.
Mean tumor volume at dosing start was approximately 185 mm^3, with seven mice randomized to each treatment group. Mice were dosed orally, once per day, with Vehicle, Compound A at 10 mg/kg, or dosed for 3 consecutive days followed by 4 days holiday by intraperitoneal (IP) injection of Compound B at 5 mg/kg or 10 mg/kg, or combination of Compound A and Compound B. The vehicle group was a combination of Vehicle A (for Compound A, 0.5% 400 cps methylcellulose with 0.5% Tween-80 in sterile water) and Vehicle B (for irinotecan hydrochloride, Saline).

HuP-T4 = test: 10-day proliferation screen with Compound A pre-treatment (Example 3); format: cell-based; conditions: Homo sapiens, read-out: Growth IC50
Description: (§1) A 10-day proliferation screen was performed in 15 pancreatic, non-small cell lung, and bladder cancer cell lines: 10 MTAP null and 5 MTAP wild-type. Optimal cell seeding for all cell lines was determined by assessing the growth over a range of seeding densities in a 384-well format to identify conditions that permitted proliferation for 10 days. Cells were then plated at the optimal seeding density in the presence of 20-150 nM of Compound A or DMSO vehicle control. Cells were incubated at 37° C. with 5% CO2 for 4 days to allow for target engagement of the pre-treatment compound. Maintaining the pre-treatment condition, cells were also treated with an 11-point, three-fold titration series of compounds from a chemically diverse library of 424 compounds. The combination compound concentrations ranged from 0.2 nM to 14,679 nM. A plate of cells was harvested at the time of combination compound addition to quantify the number of cells at the start of the combination (T0). For cell quantification, the harvested cells were lysed with CellTiter-Glo (CTG) (Promega) reagent according to the manufacturer's protocol and the chemiluminescent signal was detected on a Synergy Neo plate reader (ThermoFisher, serial #140715A). CTG estimates cell number through detection of cellular ATP levels. Cells were incubated with the drug combinations at 37° C. with 5% CO2 for an additional 6 days for a total of a 10-day assay including the pre-treatment. Cells were then lysed with CTG and the chemiluminescent signal was measured. CTG values obtained after the 10-day treatment were background subtracted, expressed as a percent of the T0 value, and plotted against compound concentration. Data were fit with a four-parameter equation to generate concentration response curves. Growth IC50 values and maximal growth inhibition were compared between the DMSO and the Compound A pre-treated cells for each combination titration. Combination hit calling was based on the observation of >2-fold shift in growth IC50 and/or greater than 20% […] in growth inhibition.

J82 = test: as above; format: cell-based; conditions: Homo sapiens, read-out: Growth IC50
Description: as §1

NCI-H2170 = test: as above; format: cell-based; conditions: Homo sapiens, read-out: Growth IC50
Description: as §1

NCI-H2228 = test: as above; format: cell-based; conditions: Homo sapiens, read-out: Growth IC50
Description: as §1

NCI-H520 = test: as above; format: cell-based; conditions: Homo sapiens, read-out: Growth IC50
Description: as §1

NCI-H838 = test: as above; format: cell-based; conditions: Homo sapiens, read-out: Growth IC50
Description: as §1

OE33 = test: as above; format: cell-based; conditions: Homo sapiens, read-out: Growth IC50
Description: as §1

RT112/84 = test: as above; format: cell-based; conditions: Homo sapiens, read-out: Growth IC50
Description: as §1

SW900 = test: as above; format: cell-based; conditions: Homo sapiens, read-out: Growth IC50
Description: as §1

TCCSUP = test: as above; format: cell-based; conditions: Homo sapiens, TCC-SUP, read-out: Growth IC50
Description: as §1

UMUC11 = test: as above; format: cell-based; conditions: read-out: Growth IC50
Description: as §1

UMUC5 = test: as above; format: cell-based; conditions: read-out: Growth IC50
Description: as §1

Compound: Nc1nc(=O)n(-c2ccccc2Cl)c2nc(C(F)(F)F)ccc12 [Compound A]
Day 11 TGI [1]: −6%
TGI [1]: no significant TGI
Tumor Regression Rate on Day 11 [1]: 0%
Day 11 TV (mean) ([1]; initial TV 186, vehicle 1018): 1069 mm^3

IC50 (NCI-H2170; NCI-H2170, Cmpd A pre-treatment 80 nM): 5.55 µM
IC50 (NCI-H2170; NCI-H2170, DMSO pre-treatment): 7.17 µM
IC50 (NCI-H2228; NCI-H2228, Cmpd A pre-treatment 80 nM): 0.191 µM
IC50 (NCI-H2228; NCI-H2228, DMSO pre-treatment): 0.167 µM
IC50 (NCI-H520; NCI-H520, Cmpd A pre-treatment 80 nM): 0.79 µM
IC50 (NCI-H520; NCI-H520, DMSO pre-treatment): 0.727 µM
IC50 (NCI-H838; NCI-H838, Cmpd A pre-treatment 20 nM): 0.539 µM
IC50 (NCI-H838; NCI-H838, Cmpd A pre-treatment 150 nM): 0.342 µM
IC50 (NCI-H838; NCI-H838, DMSO pre-treatment (control for 20 nM Cmpd A)): 1.05 µM
IC50 (NCI-H838; NCI-H838, DMSO pre-treatment (control for 150 nM Cmpd A)): 0.807 µM
IC50 (SW900; SW900, Cmpd A pre-treatment 80 nM): 1.1 µM
IC50 (SW900; SW900, DMSO pre-treatment): 2.28 µM
Compound: NS(=O)(=O)c1ccc(S(=O)(=O)Nc2cccc3c(Cl)c[nH]c23)cc1 [Indisulam, N-(3-chloro-1H-indol-7-yl)benzene-1,4-disulfonamide]
IC50 (HuP-T4; HuP-T4, Cmpd A pre-treatment 150 nM): 0.549 µM
IC50 (HuP-T4; HuP-T4, DMSO pre-treatment): 1.07 µM
IC50 (J82; J82, Cmpd A pre-treatment 150 nM): 7.1 µM
IC50 (J82; J82, DMSO pre-treatment): 12.5 µM
IC50 (OE33; OE33, Cmpd A pre-treatment 150 nM): 5.37 µM
IC50 (OE33; OE33, DMSO pre-treatment): 12.1 µM
IC50 (RT112/84; RT112/84, Cmpd A pre-treatment 150 nM): 0.229 µM
IC50 (RT112/84; RT112/84, DMSO pre-treatment): 0.913 µM
IC50 (TCCSUP; Cmpd A pre-treatment 150 nM): 6.08 µM
IC50 (TCCSUP; DMSO pre-treatment): 8.66 µM
IC50 (UMUC11; Cmpd A pre-treatment 150 nM): 1.27 µM
IC50 (UMUC11; DMSO pre-treatment): 0.864 µM
IC50 (UMUC5; Cmpd A pre-treatment 150 nM): 0.807 µM
IC50 (UMUC5; DMSO pre-treatment): 1.83 µM
